Test results reported in patent US20120121574A1, “ANTIMICROBIAL, ANTIVIRAL, ANTICANCER AND IMMUNOMODULATORY PEPTIDES AND USES THEREFORE” (priority 2010, published 2012).
Where no end group is shown, it is not given here.

Tests used:
A. fumigatus 1163 strain = assay: CFU assay against A. fumigatus conidia; assay type: cell-based, Aspergillus fumigatus
Protocol: After the incubation period, the conidial suspensions have been plated on Sabouraud dextrose agar, then incubated at 30° C. and observed for CFU enumeration after 48 hours.
After the incubation period, the cell suspensions have been plated on Sabouraud dextrose agar, then incubated at 30° C. and observed for CFU enumeration after 48 hours.

[1] = test system: K. pneumoniae ATCC 700603 strain; assay: CFU assay against K. pneumoniae; assay type: cell-based, Klebsiella pneumoniae
[2] = test system: P. aeruginosa ATCC 25853 strain; assay: CFU assay against P. aeruginosa; assay type: cell-based, Pseudomonas aeruginosa
S. aureus 29213 strain = assay: CFU assay against S. aureus; assay type: cell-based, Staphylococcus aureus
Protocol: (§1) In vitro activity of N10K against S. aureus 29213 strain. The microbicidal activity of N10K peptide against S. aureus has been evaluated by a conventional CFU assay. Cells of S. aureus 29213 have been incubated at 37° C. for 5 hours in the presence of N10K at the concentration of 50, 45 or 40 micrograms/ml, or in distilled water as control growth. After the incubation period, the cell suspensions have been plated on Mueller Hinton agar, then incubated at 37° C. and observed for CFU enumeration after 24 hours.
as §1, with “T11F” for “N10K”, “bactericidal” for “microbicidal”, “40” for “45”, “30” for “40”
In vitro activity of H4L against S. aureus 29213 strain. The bactericidal activity of H4L peptide against S. aureus has been evaluated by a conventional CFU) assay. […]
In vitro activity of MoA VHCDR3 against S. aureus 29213 strain. The microbicidal activity of MoA VHCDR3 peptide against S. aureus has been evaluated by a conventional CFU assay. […]

[3] = test system: peritoneal murine macrophages (PM); assay: in vitro immunomodulatory activity on murine peritoneal macrophages (PM); assay type: cell-based, mouse
Protocol: In vitro immunomodulatory activity of MoA VHCDR3 on murine immune cells. FIGS. 47-51 are graphs showing TNF-α and IL-6 production by PM and PMN stimulated with MoA CDRs and mouse MoA VHCDR3 uptake by different cell populations. Cells were cultured in the presence or absence (NS) of human and/or mouse CDRs, lipopolisaccharide (LPS), or negative control peptide (NC) (all 10 micrograms/ml) for 18 hr. Both PM and PMN cell populations were 5×10^6/ml. After incubation, TNF-α and IL-6 levels were evaluated in culture supernatants by specific ELISA assays (* P<0.05 treated vs untreated cells, n=7). In FIG. 51, dendritic cells (DC), PM, PMN, and T cells (all 1×10^6/ml) were incubated for 1 hr in the presence or absence (NS) of biotinylated (b)-MoA VHCDR3 or b-NC (both 10 micrograms/ml). After incubation, permeabilized cells were reacted with FITC-labelled mAb to biotin (b) and analyzed by FACScan flow cytometry. Data are reported as the percentage of positive cells *, P<0.05 (b-VHCDR3 treated vs untreated cells, n=5). Error bars, s.e.m. FIGS. 52A and B show graphs and colored cell staining micrograph of kinetic of VHCDR3 uptake by PM. PM (1×10^6/ml) were incubated for different times with b-VHCDR3 or b-NC (all 10 micrograms/ml). After incubation, permeabilized cells were reacted with FITC-labelled mAb to biotin and analyzed by FACScan flow cytometry. Data are reported as the mean fluorescence intensity (MFI) and percentage of positive cells (FIG. 52A) (* P<0.05 b-VHCDR3-treated vs untreated cells, n=7). Error bars, s.e.m. In selected experiments, cells were incubated for 1 hr as above described, reacted with FITC-labelled mAb to biotin in the presence of Evans' Blue as a counter stain, and subsequently examined under fluorescent light microscopy (FIG. 52B). Note the green fluorescence of b-VHCDR3 treated cells. Original magnification 20×. In FIGS. 53 and 54 is shown the phospho-Akt activation and TNF-α production in PM stimulated with MoA VHCDR3. PM (3×10^6/ml) were stimulated for 1 hr in the presence or absence (NS) of MoA VHCDR3, LPS, an irrelevant control peptide (NC) or a scrambled peptide (SP) (all 10 micrograms/ml). After incubation, cell lysates were subjected to Western blotting. Membranes were incubated with Abs to pAkt and Akt; pAkt was normalized against Akt (FIG. 53)*, P<0.05 (treated vs untreated cells, n=5). […] PM (5×10^6/ml) were stimulated for 18 hr as above described. After incubation, TNF-α level was evaluated in culture supernatants by specific ELISA assays. (FIG. 54)*, P<0.05 (treated vs untreated cells, n=5). In FIGS. 55 and 56 is shown the phospho-IkBα activation and TNF-α gene expression in PM stimulated with MoA VHCDR3. PM (3×10^6/ml) were stimulated for 1 hr in the presence or absence (NS) of wortmannin (4 nM), MoA VHCDR3, LPS or NC (all 10 micrograms/ml). After incubation, cell lysates were subjected to Western blotting. Membranes were incubated with Abs to pIkBα and IkBα; pIkBα was normalized against IkBα. (FIG. 55)*, P<0.05 (treated versus untreated cells, n=5); †, P<0.05 (wortmannin-treated vs wortmannin-untreated cells, n=5). For testing the expression level of TNF-α gene, PM (1×10^6/ml) were cultured for 1, 6 and 18 hr as above described. After incubation, total RNA was isolated and analyzed for mRNA expression with RT-PCR (FIG. 56). Transcript copy numbers were determined by qPCR using cDNA as a template. Copy numbers were normalized against the copy number of the GADPH gene (B). […]

M. furfur 101 strain = assay: CFU assay against M. furfur; assay type: cell-based, Malassezia furfur
Protocol: After the incubation period, the cell suspensions were plated on Sabouraud dextrose agar added with Tween 20 (1%), then incubated at 30° C. and observed for CFU enumeration after 72 hours.
After the incubation period, the cell suspensions have been plated on Sabouraud dextrose agar added with Tween 20 (1%), then incubated at 30° C. and observed for CFU enumeration after 72 hours.

[4] = test system: E. coli ATCC 25922 strain; assay: CFU assay against E. coli; assay type: cell-based, Escherichia coli
C. albicans CA-6 strain = assay: murine model of systemic candidiasis; assay type: in vivo, Balb/c mice
Protocol: CFU recovery from the kidneys of mice was determined 7 and 12 days after fungal infection.
Mice were infected intravenously with the opportunistic fungus C. albicans and treated with mouse VHCDR3 or VLCDR3 (used as a negative control) intraperitoneally 4 hr before (200 micrograms), and 1 (100 micrograms) and 2 (100 micrograms) days after infection. Animal survival and fungal burden in kidneys were evaluated in different groups of mice. […] Error bars, s.e.m.

C. albicans cells = assay: direct candidacidal activity in vitro (strain not stated); assay type: cell-based, Candida albicans
[5] = test system: C. albicans SC5314 strain
Protocol: In vitro activity of N10K against C. albicans SC5314 strain. The candidacidal activity of N10K peptide against C. albicans was assessed by a conventional colony forming unit (CFU) assay as previously described (Polonelli et al., 2003; Manfredi et al., 2005). Briefly, cells of C. albicans SC5314 were incubated at 37° C. for 6 hours (hr) in the presence of N10K at the concentration indicated of 20, 12.5 or 6.25 microgram/ml, or in distilled water as control (C). After incubation, cell suspensions were plated on Sabouraud dextrose agar and incubated at 30° C. for 48 hours when CFU were counted (** P<0.01 for N10K treated versus untreated cells, by t test). […]
The alanine-substituted derivatives (asd), defined according to the position held by the alanine-substituted aminoacid, were tested against C. albicans by a conventional colony forming unit (CFU) as previously described (Polonelli et al., 2003). Briefly, cells of C. albicans SC5314 were incubated at 37° C. for 6 hours in the presence of N10K or N10K asd at different scalar concentrations or distilled water as control. After incubation, cell suspensions were plated on Sabouraud dextrose agar and incubated at 30° C. for 48 hours when CFU were counted. Based on several independent replications, the EC50 value of each peptide was calculated by nonlinear regression analysis using Graph Pad Prism 4.01 software, San Diego, Calif., USA. […]
In vitro microbicidal activity of N10K derivative with 2 amino acid substitutions, or 80% sequence identity with native N10K, namely peptide Seq Id. No. 25 was tested against Candida albicans SC5314 as determined by Colony Forming Unit assay.

Human monocytes = assay: in vitro immunomodulatory activity on human monocytes; assay type: cell-based; settings: 10 micrograms/ml, 18 hr, ELISA
Protocol: Human monocytes or PMN (both 10×10^6/ml) were incubated in RPMI 1640 plus 10% FCS for 18 hr or 6 hr respectively in the presence or in the absence (NS) of LPS, negative control (NC) and peptides (all 10 micrograms/ml). After incubation culture supernatants were collected and tested for cytokines production by specific ELISA. […] Monocytes were incubated for 30 minutes in presence or absence (NS) of NC or N10K (both 10 micrograms/ml) or Cytochalasin D (30 μM). After incubation cells have been stimulated for 30 minutes with non opsonized h.i. […] The percentage of phagocytosis (FIG. 18A) and the medium number of yeast particles adhered or ingested by each monocyte (phagocytic index) (FIG. 18B) have been determined by cytofluorimetric analysis. […] PBMC have been incubated 30 minutes in presence or absence (NS) of NC or N10K (both 10 micrograms/ml). After incubation PBMC have been stimulated for 18 h with LPS (10 micrograms/ml) or h.i. […] The levels of IL-12p40 and IL-6 have been evaluated in the supernatants by ELISA Kit.
After incubation culture supernatants were collected and tested for cytokines production by specific ELISA. […]

[6] = peptide 100 micrograms/ml, 5 hours 37° C.

Sequence: G Q Y G N L W F A Y (GQYGNLWFAY) [MoA VHCDR3, CDR3 fragment of the H chain of a murine IgM mAb directed to difucosyl human blood group A substance]
- Activity (A. fumigatus 1163 strain; Table III, in vitro): cidal
- fungicidal activity (CFU) (A. fumigatus 1163 strain; peptide 100 micrograms/ml, 18 hours 30° C.): showed fungicidal activity
- Activity ([1]; Table III, in vitro): cidal
- bactericidal activity (CFU) [1, 6]: showed bactericidal activity
- Activity ([2]; Table III, in vitro): cidal
- bactericidal activity (CFU) [2, 6]: showed bactericidal activity
- Activity (S. aureus 29213 strain; Table III, in vitro): cidal
- bactericidal activity (CFU) (S. aureus 29213 strain; [6]): showed bactericidal activity
- TLR-4 expression ([3]; 10 micrograms/ml): up-regulates TLR-4
- Akt activation (phospho-Akt) ([3]; 10 micrograms/ml, 1 hr, Western blotting): induces Akt activation
- TNF-α production by PM ([3]; 10 micrograms/ml, ELISA): stimulate PM to produce TNF-α
- TNF-α mRNA ([3]; 1 hr post stimulation, 10 micrograms/ml): detected
- Activity (Stimulation of TNF-α, IL-6) ([3]; Table III, in vitro, Immune cells): Stimulation
- Activity (M. furfur 101 strain; Table III, in vitro): cidal
- fungicidal activity (CFU) (M. furfur 101 strain; peptide 100 micrograms/ml, 6 hours 30° C.): showed fungicidal activity
- Activity ([4]; Table III, in vitro): cidal
- bactericidal activity (CFU) [4, 6]: showed bactericidal activity
- Activity (C. albicans CA-6 strain; Table III, in vivo, Fungus, for MoAVHCDR3 the wrapped cell reads Indirectly cidal up regulation of TNF-α, TLR-4): Indirectly
- CFU recovery from kidneys (C. albicans CA-6 strain; intraperitoneally 200 micrograms 4 hr before, 100 micrograms 1 and 2 days after infection, 5, 7 and 12 days after infection, versus negative control mice): impressive decrease
- survival of infected mice (C. albicans CA-6 strain; intraperitoneally 200 micrograms 4 hr before, 100 micrograms 1 and 2 days after infection, versus untreated or MoA VLCDR3 treated): significant increase in survival
- activity against C. albicans cells in vitro (C. albicans cells): ineffective

Sequence: NAVSLTCLVK [asd Q2A N10K, N A V S L T C L V K]
- EC50 ([5]; SC5314, 6 h): 2300 nM
- EC50asd/EC50N10K ([5]; Table IX): 2.30
- IL-6 production by human monocytes (Human monocytes): strong enhancement
